Earlier results on 1 molecule are cited in patent publication US20090005321A1, “Phenylazetidinone Derivatives” (Microbia, Inc., priority 2005, published 2009).

For data set [1] the following is noted: in vivo.
The conditions of data set [2]: in humans.

In the case of `O=C1[C@H](CC[C@H](O)c2ccc(F)cc2)[C@@H](c2ccc(O)cc2)N1c1ccc(F)cc1` [ezetimibe, (3R,4S)-1-(4-fluorophenyl)-3-[(3S)-3-(4-fluorophenyl)-3-hydroxypropyl]-4-(4-hydroxyphenyl)azetidin-2-one], in data set [1], the “absorption of taurocholic acid” value is “does not inhibit”. Further, the fat-soluble vitamin absorption entry in data set [2] is “does not appear to affect”.
